# Tested on: MV-4-11 cells
# Assay: Gene expression microarray analysis (Affymetrix PrimeView) and GSEA
# Assay type: cell-based, human
# Design: RFU PODN (11730768_x_at) / Fold change /veh PODN (11730768_x_at) / RFU LINC00158 (11744669_a_at) / Fold change /veh LINC00158 (11744669_a_at) / RFU DUSP10 (11751237_a_at) / Fold change /veh DUSP10 (11751237_a_at) / RFU ID3 (11757404_x_at) / Fold change /veh ID3 (11757404_x_at) / RFU PLEKHG5 (11737974_s_at) / Fold change /veh PLEKHG5 (11737974_s_at) / RFU LRRC4B (11730491_at) / Fold change /veh LRRC4B (11730491_at) / RFU GIMAP4 (11747438_a_at) / Fold change /veh GIMAP4 (11747438_a_at) / RFU KRT8 (11758183_x_at) / Fold change /veh KRT8 (11758183_x_at) / RFU CNN1 (11734310_a_at) / Fold change /veh CNN1 (11734310_a_at) / RFU VPS37D (11726825_at) / Fold change /veh VPS37D (11726825_at) / RFU C10orf10 (11716522_x_at) / Fold change /veh C10orf10 (11716522_x_at) / RFU KIR2DL2 /// KIR2DL4 /// KIR2DL5A /// KIR2DL5B /// KIR2DS1 /// KIR2DS2 /// KIR2DS3 /// KIR2DS4 /// KIR3DL3 /// KIR3DL3 /// KIR3DS1 (11738374_at) / Fold change /veh KIR2DL2 /// KIR2DL4 /// KIR2DL5A /// KIR2DL5B /// KIR2DS1 /// KIR2DS2 /// KIR2DS3 /// KIR2DS4 /// KIR3DL3 /// KIR3DL3 /// KIR3DS1 (11738374_at) / RFU C1QL1 (11718748_at) / Fold change /veh C1QL1 (11718748_at) / RFU TMPRSS4 (11747572_a_at) / Fold change /veh TMPRSS4 (11747572_a_at) / RFU HAMP (11756126_x_at) / Fold change /veh HAMP (11756126_x_at) / RFU RNFT2 (11725882_a_at) / Fold change /veh RNFT2 (11725882_a_at) / RFU NR4A2 (11747474_a_at) / Fold change /veh NR4A2 (11747474_a_at) / RFU ABCC12 (11746883_a_at) / Fold change /veh ABCC12 (11746883_a_at) / RFU TMEM136 (11760407_x_at) / Fold change /veh TMEM136 (11760407_x_at) / RFU CLDN22 /// WWC2 (11732394_at) / Fold change /veh CLDN22 /// WWC2 (11732394_at) / RFU HLA-DPB1 (11760878_x_at) / Fold change /veh HLA-DPB1 (11760878_x_at) / RFU SPINT1 (11716480_a_at) / Fold change /veh SPINT1 (11716480_a_at) / RFU GAP43 (11754022_s_at) / Fold change /veh GAP43 (11754022_s_at) / RFU A4GNT (11735810_at) / Fold change /veh A4GNT (11735810_at) / RFU PRB3 (11715151_x_at) / Fold change /veh PRB3 (11715151_x_at) / RFU TUBB4B (11761932_at) / Fold change /veh TUBB4B (11761932_at) / RFU CAPN14 (11732068_a_at) / Fold change /veh CAPN14 (11732068_a_at) / RFU TMCC2 (11721928_a_at) / Fold change /veh TMCC2 (11721928_a_at) / RFU IRGQ (11745062_a_at) / Fold change /veh IRGQ (11745062_a_at) / RFU FAM174B (11720279_a_at) / Fold change /veh FAM174B (11720279_a_at) / RFU TMPRSS4 (11748680_a_at) / Fold change /veh TMPRSS4 (11748680_a_at) / RFU FAM212B (11763350_a_at) / Fold change /veh FAM212B (11763350_a_at) / RFU PLEKHG5 (11743358_a_at) / Fold change /veh PLEKHG5 (11743358_a_at) / RFU ZSCAN30 (11745921_a_at) / Fold change /veh ZSCAN30 (11745921_a_at) / RFU CMKLR1 (11741424_a_at) / Fold change /veh CMKLR1 (11741424_a_at) / RFU LOC101060620 /// MAPK8IP1 (11723275_at) / Fold change /veh LOC101060620 /// MAPK8IP1 (11723275_at) / RFU SPTSSB (11747773_x_at) / Fold change /veh SPTSSB (11747773_x_at) / RFU PRSS12 (11739890_at) / Fold change /veh PRSS12 (11739890_at) / RFU BIN1 (11741810_x_at) / Fold change /veh BIN1 (11741810_x_at) / RFU WNT11 (11732464_a_at) / Fold change /veh WNT11 (11732464_a_at) / RFU C10orf10 (11716521_a_at) / Fold change /veh C10orf10 (11716521_a_at) / RFU C5orf56 (11738089_at) / Fold change /veh C5orf56 (11738089_at) / RFU CYB561 (11721691_x_at) / Fold change /veh CYB561 (11721691_x_at) / RFU ANKRD19P (11752326_a_at) / Fold change /veh ANKRD19P (11752326_a_at) / RFU OR2T12 /// OR2T33 /// OR2T8 (11738714_s_at) / Fold change /veh OR2T12 /// OR2T33 /// OR2T8 (11738714_s_at) / RFU VCAN (11748164_a_at) / Fold change /veh VCAN (11748164_a_at) / RFU JSRP1 (11732532_at) / Fold change /veh JSRP1 (11732532_at) / RFU KRTAP10-11 (11738290_x_at) / Fold change /veh KRTAP10-11 (11738290_x_at) / RFU MYO3A (11730013_a_at) / Fold change /veh MYO3A (11730013_a_at) / RFU EBF3 (11725865_a_at) / Fold change /veh EBF3 (11725865_a_at) / RFU CAMK2N1 (11719241_x_at) / Fold change /veh CAMK2N1 (11719241_x_at) / RFU C5orf56 (11738088_a_at) / Fold change /veh C5orf56 (11738088_a_at) / RFU OLFML3 (11715873_a_at) / Fold change /veh OLFML3 (11715873_a_at) / RFU LOC100653217 /// NTM (11731650_a_at) / Fold change /veh LOC100653217 /// NTM (11731650_a_at) / RFU MAPK11 (11762145_a_at) / Fold change /veh MAPK11 (11762145_a_at) / RFU FIZ1 (11724087_x_at) / Fold change /veh FIZ1 (11724087_x_at) / RFU OASL (11726364_x_at) / Fold change /veh OASL (11726364_x_at) / RFU SOX15 (11748057_x_at) / Fold change /veh SOX15 (11748057_x_at) / RFU CD79A (11719716_a_at) / Fold change /veh CD79A (11719716_a_at) / RFU HIST1H1D (11736915_at) / Fold change /veh HIST1H1D (11736915_at) / RFU CASKIN2 (11723855_a_at) / Fold change /veh CASKIN2 (11723855_a_at) / RFU LOC730098 (11760151_x_at) / Fold change /veh LOC730098 (11760151_x_at) / RFU OR4N2 (11742367_at) / Fold change /veh OR4N2 (11742367_at) / RFU PRRT2 (11749266_a_at) / Fold change /veh PRRT2 (11749266_a_at) / RFU SNX32 (11753110_a_at) / Fold change /veh SNX32 (11753110_a_at) / RFU CDHR5 (11726645_a_at) / Fold change /veh CDHR5 (11726645_a_at) / RFU RCAN1 (11760418_a_at) / Fold change /veh RCAN1 (11760418_a_at) / RFU FAM167A (11723789_a_at) / Fold change /veh FAM167A (11723789_a_at) / RFU FAM26E (11764081_at) / Fold change /veh FAM26E (11764081_at) / RFU ISYNA1 (11749810_s_at) / Fold change /veh ISYNA1 (11749810_s_at) / RFU ACY1 (11761880_at) / Fold change /veh ACY1 (11761880_at) / RFU 11764098_at / Fold change /veh 11764098_at / RFU SAMD14 (11745864_x_at) / Fold change /veh SAMD14 (11745864_x_at) / RFU NPB (11741838_a_at) / Fold change /veh NPB (11741838_a_at) / RFU TMPRSS6 (11731388_a_at) / Fold change /veh TMPRSS6 (11731388_a_at) / RFU KRTAP10-2 (11738614_at) / Fold change /veh KRTAP10-2 (11738614_at) / RFU ARHGAP8 /// PRR5-ARHGAP8 (11727945_x_at) / Fold change /veh ARHGAP8 /// PRR5-ARHGAP8 (11727945_x_at) / RFU KRTAP5-7 /// NADSYN1 (11734609_at) / Fold change /veh KRTAP5-7 /// NADSYN1 (11734609_at) / RFU RASL12 (11751679_a_at) / Fold change /veh RASL12 (11751679_a_at) / RFU CDKN2B (11736163_a_at) / Fold change /veh CDKN2B (11736163_a_at) / RFU PRF1 (11729649_at) / Fold change /veh PRF1 (11729649_at) / RFU, ZNF638 /// ZNF638-IT1 / Fold change vs veh, ZNF638 /// ZNF638-IT1 / RFU, PANK3 / Fold change vs veh, PANK3 / RFU, SH3YL1 / Fold change vs veh, SH3YL1 / RFU, ZEB2 / Fold change vs veh, ZEB2 / RFU, NRIP1 / Fold change vs veh, NRIP1 / RFU, PTTG1IP / Fold change vs veh, PTTG1IP / RFU, CAPN2 / Fold change vs veh, CAPN2 / RFU, MED14 / Fold change vs veh, MED14 / RFU, SNORA58 / Fold change vs veh, SNORA58 / RFU, C1orf63 / Fold change vs veh, C1orf63 / RFU, LRRFIP1 / Fold change vs veh, LRRFIP1 / RFU, NDUFAF7 / Fold change vs veh, NDUFAF7 / RFU, SLC12A2 / Fold change vs veh, SLC12A2 / RFU, IBTK / Fold change vs veh, IBTK / RFU, ESF1 / Fold change vs veh, ESF1 / Fold change vs veh, TMEM50B / RFU, TAOK1 / Fold change vs veh, TAOK1 / RFU, ACBD3 / Fold change vs veh, ACBD3 / RFU, TMA16 / Fold change vs veh, TMA16 / RFU, RWDD3 / Fold change vs veh, RWDD3 / RFU, BCAT1 / Fold change vs veh, BCAT1 / RFU, EDEM3 / Fold change vs veh, EDEM3 / RFU, TMEM33 / Fold change vs veh, TMEM33 / RFU, WDR75 / Fold change vs veh, WDR75 / RFU, AHCTF1 / Fold change vs veh, AHCTF1 / RFU, TFRC / Fold change vs veh, TFRC / RFU, ZDHHC17 / Fold change vs veh, ZDHHC17 / RFU, NOM1 / Fold change vs veh, NOM1 / RFU, ARL8B / Fold change vs veh, ARL8B / RFU, ZBTB11 / Fold change vs veh, ZBTB11 / RFU, TAMM41 / Fold change vs veh, TAMM41 / RFU, KIAA1704 /// LOC100996395 / Fold change vs veh, KIAA1704 /// LOC100996395 / RFU, ING1 / Fold change vs veh, ING1 / RFU, TRMT61B / Fold change vs veh, TRMT61B / RFU, FUBP3 / Fold change vs veh, FUBP3 / RFU, TP53 / Fold change vs veh, TP53 / RFU, TNKS2 / Fold change vs veh, TNKS2 / RFU, ZFP14 / Fold change vs veh, ZFP14 / RFU, ACTR2 / Fold change vs veh, ACTR2 / RFU, PPP3R1 / Fold change vs veh, PPP3R1 / RFU, PIK3R1 / Fold change vs veh, PIK3R1 / RFU, HNRNPA1 / Fold change vs veh, HNRNPA1 / RFU, RNF170 / Fold change vs veh, RNF170 / RFU, ZNF28 / Fold change vs veh, ZNF28 / RFU, RNGTT / Fold change vs veh, RNGTT / RFU, OGT / Fold change vs veh, OGT / RFU, BRD1 / Fold change vs veh, BRD1 / RFU, MARS / Fold change vs veh, MARS / RFU, ZNF655 / Fold change vs veh, ZNF655 / RFU, FAHD1 / Fold change vs veh, FAHD1 / RFU, BDP1 / Fold change vs veh, BDP1 / RFU, LRRCC1 / Fold change vs veh, LRRCC1 / RFU, ARID1A / Fold change vs veh, ARID1A / RFU, ZNF146 / Fold change vs veh, ZNF146 / RFU, ZNF330 / Fold change vs veh, ZNF330 / RFU, GPN3 / Fold change vs veh, GPN3 / RFU, C9orf123 / Fold change vs veh, C9orf123 / RFU, N4BP2L2 / Fold change vs veh, N4BP2L2 / RFU, ARFIP1 / Fold change vs veh, ARFIP1 / RFU, FAM179B / Fold change vs veh, FAM179B / RFU, BCL10 / Fold change vs veh, BCL10 / RFU, UHRF1BP1L / Fold change vs veh, UHRF1BP1L / RFU, BET1 / Fold change vs veh, BET1 / RFU, CNOT2 / Fold change vs veh, CNOT2 / RFU, ZNF268 / Fold change vs veh, ZNF268 / Fold change vs veh, ZNF507 / RFU, DGCR2 / Fold change vs veh, DGCR2 / RFU, WDSUB1 / Fold change vs veh, WDSUB1 / Fold change vs veh, HSP90B1 /// MIR3652 / RFU, ADSS / Fold change vs veh, ADSS / RFU, GK / Fold change vs veh, GK / RFU, ZNF148 / Fold change vs veh, ZNF148 / RFU, TAF9 / Fold change vs veh, TAF9 / RFU, SLC1A5 / Fold change vs veh, SLC1A5 / RFU, SLMO2 / Fold change vs veh, SLMO2 / RFU, ABCC4 / Fold change vs veh, ABCC4 / RFU, LOC101060439 /// RAP1B / Fold change vs veh, LOC101060439 /// RAP1B / RFU, RFX7 / Fold change vs veh, RFX7 / RFU, GTPBP10 / Fold change vs veh, GTPBP10 / RFU, CNEP1R1 / Fold change vs veh, CNEP1R1 / RFU, BIVM-ERCC5 /// ERCC5 / Fold change vs veh, BIVM-ERCC5 /// ERCC5 / RFU, ILF3 / Fold change vs veh, ILF3 / RFU 11762660_at / Fold change /veh 11762660_at / RFU VCAN (11757783_s_at) / Fold change /veh VCAN (11757783_s_at) / RFU DDX43 (11728927_at) / Fold change /veh DDX43 (11728927_at) / RFU KRT8 (11758188_x_at) / Fold change /veh KRT8 (11758188_x_at) / RFU NKD1 (11759106_at) / Fold change /veh NKD1 (11759106_at) / RFU SRD5A1 (11742802_a_at) / Fold change /veh SRD5A1 (11742802_a_at) / RFU TPSAB1 /// TPSB2 (11721975_s_at) / Fold change /veh TPSAB1 /// TPSB2 (11721975_s_at) / RFU GSTM3 (11746129_a_at) / Fold change /veh GSTM3 (11746129_a_at) / RFU IL23R (11737362_x_at) / Fold change /veh IL23R (11737362_x_at) / RFU TMEM51 (11727254_a_at) / Fold change /veh TMEM51 (11727254_a_at) / RFU PIWIL2 (11732686_x_at) / Fold change /veh PIWIL2 (11732686_x_at) / RFU ORM1 (11744905_x_at) / Fold change /veh ORM1 (11744905_x_at) / RFU CCDC152 (11743942_at) / Fold change /veh CCDC152 (11743942_at) / RFU ECM1 (11717891_a_at) / Fold change /veh ECM1 (11717891_a_at) / RFU IL23R (11748794_a_at) / Fold change /veh IL23R (11748794_a_at) / RFU TNFAIP8L3 (11732012_x_at) / Fold change /veh TNFAIP8L3 (11732012_x_at) / RFU MBOAT4 (11741988_at) / Fold change /veh MBOAT4 (11741988_at) / RFU 11764193_at / Fold change /veh 11764193_at / RFU TMEM53 (11763286_at) / Fold change /veh TMEM53 (11763286_at) / RFU MAGEB2 (11727129_at) / Fold change /veh MAGEB2 (11727129_at) / RFU TMEM200A (11744735_a_at) / Fold change /veh TMEM200A (11744735_a_at) / RFU CCDC152 (11751479_a_at) / Fold change /veh CCDC152 (11751479_a_at) / RFU FAM211A (11726209_a_at) / Fold change /veh FAM211A (11726209_a_at) / RFU RGS16 (11746705_a_at) / Fold change /veh RGS16 (11746705_a_at) / RFU VCAN (11755009_s_at) / Fold change /veh VCAN (11755009_s_at) / RFU RHOB (11743442_s_at) / Fold change /veh RHOB (11743442_s_at) / RFU RGS16 (11720943_a_at) / Fold change /veh RGS16 (11720943_a_at) / RFU RGS16 (11720944_at) / Fold change /veh RGS16 (11720944_at) / RFU, VPS4B / Fold change vs veh, VPS4B / RFU, CREB1 / Fold change vs veh, CREB1 / RFU, DNAJC13 / Fold change vs veh, DNAJC13 / RFU, GNAQ / Fold change vs veh, GNAQ / RFU, CDK5R1 / Fold change vs veh, CDK5R1 / RFU, ZRANB3 / Fold change vs veh, ZRANB3 / RFU, CUL4A / Fold change vs veh, CUL4A / RFU, CCNY / Fold change vs veh, CCNY / RFU, UFL1 / Fold change vs veh, UFL1 / RFU, COG3 / Fold change vs veh, COG3 / RFU, DIAPH2 / Fold change vs veh, DIAPH2 / RFU, SKA2 / Fold change vs veh, SKA2 / RFU, AFF3 / Fold change vs veh, AFF3 / RFU, LMF1 / Fold change vs veh, LMF1 / RFU, IPO11 / Fold change vs veh, IPO11 / RFU, DFFB / Fold change vs veh, DFFB / RFU, FOXP1 / Fold change vs veh, FOXP1 / RFU, CARD8 / Fold change vs veh, CARD8 / RFU, STRN3 / Fold change vs veh, STRN3 / RFU, ADK / Fold change vs veh, ADK / RFU, RASSF2 / Fold change vs veh, RASSF2 / RFU, WIPF1 / Fold change vs veh, WIPF1 / RFU, LARP1B / Fold change vs veh, LARP1B / RFU, RASA1 / Fold change vs veh, RASA1 / RFU, RB1 / Fold change vs veh, RB1 / RFU, PPFIA1 / Fold change vs veh, PPFIA1 / RFU, MAT2A / Fold change vs veh, MAT2A / RFU, CCT5 / Fold change vs veh, CCT5 / RFU, WDR92 / Fold change vs veh, WDR92 / RFU, CUX1 / Fold change vs veh, CUX1 / RFU, TTC7A / Fold change vs veh, TTC7A / RFU, TMEM135 / Fold change vs veh, TMEM135 / RFU, DEPTOR / Fold change vs veh, DEPTOR / RFU, CPM / Fold change vs veh, CPM / RFU, DNAJB6 / Fold change vs veh, DNAJB6 / RFU, CACNA2D3 / Fold change vs veh, CACNA2D3 / RFU, DTX4 / Fold change vs veh, DTX4 / RFU, TFCP2 / Fold change vs veh, TFCP2 / RFU, GMCL1 /// GMCL1P1 / Fold change vs veh, GMCL1 /// GMCL1P1 / RFU, AEBP2 / Fold change vs veh, AEBP2 / RFU, SNHG1 /// SNORD22 /// SNORD25 /// SNORD26 /// SNORD27 /// SNORD28 /// SNORD29 /// SNORD31 / Fold change vs veh, SNHG1 /// SNORD22 /// SNORD25 /// SNORD26 /// SNORD27 /// SNORD28 /// SNORD29 /// SNORD31 / Fold change (Aza/veh), C12orf56 (ProbeSet 11735607_a_at) / Fold change (ACY-1035/veh), C12orf56 (ProbeSet 11735607_a_at) / Fold change (Aza/veh), FGFR1OP (ProbeSet 11751329_s_at) / Fold change (ACY-1035/veh), FGFR1OP (ProbeSet 11751329_s_at) / Fold change (Aza/veh), VPS36 (ProbeSet 11739960_a_at) / Fold change (ACY-1035/veh), VPS36 (ProbeSet 11739960_a_at) / RFU SYPL1 (11715823_x_at) / Fold change /veh SYPL1 (11715823_x_at) / RFU IGFBP7 (11715501_s_at) / Fold change /veh IGFBP7 (11715501_s_at) / RFU REEP3 (11722064_at) / Fold change /veh REEP3 (11722064_at) / RFU IGLL1 (11728026_x_at) / Fold change /veh IGLL1 (11728026_x_at): dose or concentration left out as unconfirmed
# Conditions: MV-4-11 cells, 48 hours
smiles,measurement,value
Nc1ncn([C@@H]2O[C@H](CO)[C@@H](O)[C@H]2O)c(=O)n1 [azacitidine],RFU DUSP10 (11751237_a_at),30.26 RFU
